Assay results as given in patent publication US20210045385A1, “PYRIDAZINONE-SUBSTITUTED KETOXIMES AS HERBICIDES” (FMC Corporation, priority 2018, published 2021).

Legend:
Format in all cases: in vivo
[1] = system: Italian ryegrass (Lolium multiflorum); assay: Test A preemergence, visual plant response rating; settings: approx. 10 days
Procedure, shortened: (§1)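 Ratings use a 0–100 visual scale (100 = complete control) against untreated controls, scored about 10 days after greenhouse treatment. Test chemicals were formulated in surfactant-containing non-phytotoxic solvent and applied either as soil spray after planting (preemergence) or onto one- to two-leaf, 2–10 cm plants (postemergence).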

[2] = system: barnyardgrass (Echinochloa crus-galli); assay: Test A preemergence, visual plant response rating; settings: approx. 10 days
Procedure, shortened: as §1

[3] = system: foxtail, green (green foxtail, Setaria viridis); assay: Test A preemergence, visual plant response rating; settings: approx. 10 days
Procedure, shortened: as §1

[4] = system: kochia (Kochia scoparia); assay: Test A preemergence, visual plant response rating; settings: approx. 10 days
Procedure, shortened: as §1

[5] = system: pigweed (Amaranthus retroflexus); assay: Test A preemergence, visual plant response rating; settings: approx. 10 days
Procedure, shortened: as §1

[6] = system: ragweed (common ragweed, Ambrosia elatior); assay: Test A preemergence, visual plant response rating; settings: approx. 10 days
Procedure, shortened: as §1

[7] = system: Italian ryegrass (Lolium multiflorum); assay: Test A postemergence, visual plant response rating; settings: for Ryegrass, Italian plant response rating (0 to 100 scale): 500 g ai/ha, postemergence, 0 is no effect, 100 is complete control; for Ryegrass, Italian plant response rating: Postemergence, 125 g ai/ha, 0 to 100 scale (0 no effect, 100 complete control)
Procedure, shortened: as §1

[8] = system: barnyardgrass (Echinochloa crus-galli); assay: Test A postemergence, visual plant response rating; settings: for Barnyardgrass plant response rating (0 to 100 scale): 500 g ai/ha, postemergence, 0 is no effect, 100 is complete control; for Barnyardgrass plant response rating: Postemergence, 125 g ai/ha, 0 to 100 scale (0 no effect, 100 complete control)
Procedure, shortened: as §1

[9] = system: blackgrass (Alopecurus myosuroides); assay: Test A postemergence, visual plant response rating; settings: for Blackgrass plant response rating (0 to 100 scale): 500 g ai/ha, postemergence, 0 is no effect, 100 is complete control; for Blackgrass plant response rating: Postemergence, 125 g ai/ha, 0 to 100 scale (0 no effect, 100 complete control)
Procedure, shortened: as §1

[10] = system: corn (Zea mays); assay: Test A postemergence, visual plant response rating; settings: for Corn plant response rating (0 to 100 scale): 500 g ai/ha, postemergence, 0 is no effect, 100 is complete control; for Corn plant response rating: Postemergence, 125 g ai/ha, 0 to 100 scale (0 no effect, 100 complete control)
Procedure, shortened: as §1

[11] = system: foxtail, green (green foxtail, Setaria viridis); assay: Test A postemergence, visual plant response rating; settings: for Foxtail, Green plant response rating (0 to 100 scale): 500 g ai/ha, postemergence, 0 is no effect, 100 is complete control; for Foxtail, Green plant response rating: Postemergence, 125 g ai/ha, 0 to 100 scale (0 no effect, 100 complete control)
Procedure, shortened: as §1

[12] = system: galium (catchweed bedstraw, Galium aparine); assay: Test A postemergence, visual plant response rating; settings: for Galium plant response rating (0 to 100 scale): 500 g ai/ha, postemergence, 0 is no effect, 100 is complete control; for Galium plant response rating: Postemergence, 125 g ai/ha, 0 to 100 scale (0 no effect, 100 complete control)
Procedure, shortened: as §1

[13] = system: kochia (Kochia scoparia); assay: Test A postemergence, visual plant response rating; settings: for Kochia plant response rating (0 to 100 scale): 500 g ai/ha, postemergence, 0 is no effect, 100 is complete control; for Kochia plant response rating: Postemergence, 125 g ai/ha, 0 to 100 scale (0 no effect, 100 complete control)
Procedure, shortened: as §1

[14] = system: pigweed (Amaranthus retroflexus); assay: Test A postemergence, visual plant response rating; settings: for Pigweed plant response rating (0 to 100 scale): 500 g ai/ha, postemergence, 0 is no effect, 100 is complete control; for Pigweed plant response rating: Postemergence, 125 g ai/ha, 0 to 100 scale (0 no effect, 100 complete control)
Procedure, shortened: as §1

[15] = system: ragweed (common ragweed, Ambrosia elatior); assay: Test A postemergence, visual plant response rating; settings: for Ragweed plant response rating (0 to 100 scale): 500 g ai/ha, postemergence, 0 is no effect, 100 is complete control; for Ragweed plant response rating: Postemergence, 125 g ai/ha, 0 to 100 scale (0 no effect, 100 complete control)
Procedure, shortened: as §1

[16] = system: wheat (Triticum aestivum); assay: Test A postemergence, visual plant response rating; settings: for Wheat plant response rating (0 to 100 scale): 500 g ai/ha, postemergence, 0 is no effect, 100 is complete control; for Wheat plant response rating: Postemergence, 125 g ai/ha, 0 to 100 scale (0 no effect, 100 complete control)
Procedure, shortened: as §1

[17] = system: barnyardgrass (Echinochloa crus-galli); assay: Test B flooded paddy test, visual plant response rating; settings: 250 g ai/ha, Flood, applied to paddy water, 2-leaf stage, evaluated after 13 to 15 days
Procedure, shortened: (§2)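 Plants were raised to the 2-leaf stage, then pots were flooded to 3 cm above the soil and test compound was applied directly into the paddy water. Water depth was held for the whole test; after 13 to 15 days in a greenhouse, responses were scored visually against controls.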

[18] = system: ducksalad (Heteranhera limosa); assay: as above; settings: 250 g ai/ha, Flood, applied to paddy water, 2-leaf stage, evaluated after 13 to 15 days
Procedure, shortened: as §2

[19] = system: rice (Oryza sativa); assay: as above; settings: 250 g ai/ha, Flood, applied to paddy water, 2-leaf stage, evaluated after 13 to 15 days
Procedure, shortened: as §2

[20] = system: sedge, umbrella (small-flower umbrella sedge, Cyperus difformis); assay: as above; settings: 250 g ai/ha, Flood, applied to paddy water, 2-leaf stage, evaluated after 13 to 15 days
Procedure, shortened: as §2

| Structure (SMILES) | Ryegrass, Italian plant response rating (0 to 100 scale) ([1]; 125 g ai/ha Preemergence) | Ryegrass, Italian plant response rating (0 to 100 scale) ([1]; 500 g ai/ha Preemergence) | Barnyardgrass plant response rating (0 to 100 scale) ([2]; 125 g ai/ha Preemergence) | Barnyardgrass plant response rating (0 to 100 scale) ([2]; 500 g ai/ha Preemergence) | Foxtail, Green plant response rating (0 to 100 scale) ([3]; 125 g ai/ha Preemergence) | Foxtail, Green plant response rating (0 to 100 scale) ([3]; 500 g ai/ha Preemergence) | Kochia plant response rating (0 to 100 scale) ([4]; 125 g ai/ha Preemergence) | Kochia plant response rating (0 to 100 scale) ([4]; 500 g ai/ha Preemergence) | Pigweed plant response rating (0 to 100 scale) ([5]; 125 g ai/ha Preemergence) | Pigweed plant response rating (0 to 100 scale) ([5]; 500 g ai/ha Preemergence) | Ragweed plant response rating (0 to 100 scale) ([6]; 125 g ai/ha Preemergence) | Ragweed plant response rating (0 to 100 scale) ([6]; 500 g ai/ha Preemergence) | Ryegrass, Italian plant response rating (0 to 100 scale) [7] | Ryegrass, Italian plant response rating [7] | Barnyardgrass plant response rating (0 to 100 scale) [8] | Barnyardgrass plant response rating [8] | Blackgrass plant response rating (0 to 100 scale) [9] | Blackgrass plant response rating [9] | Corn plant response rating (0 to 100 scale) [10] | Corn plant response rating [10] | other results |
| --- | --- | --- | --- | --- | --- | --- | --- | --- | --- | --- | --- | --- | --- | --- | --- | --- | --- | --- | --- | --- | --- |
| CCO/N=C(/c1ccc(C)cc1)c1c(O)c(C)nn(C)c1=O [Compound 16] | 0 | 50 | 0 | 0 | 0 | 0 | 0 | 0 | 0 | 0 | 0 | 20 | 0 | 0 | 10 | 0 | 0 | 0 | 0 | 0 | Foxtail, Green plant response rating (0 to 100 scale) [11]: 10; Foxtail, Green plant response rating [11]: 0; Galium plant response rating (0 to 100 scale) [12]: 0; Galium plant response rating [12]: 0; Kochia plant response rating (0 to 100 scale) [13]: 10; Kochia plant response rating [13]: 0; Pigweed plant response rating (0 to 100 scale) [14]: 0; Pigweed plant response rating [14]: 0; Ragweed plant response rating (0 to 100 scale) [15]: 30; Ragweed plant response rating [15]: 0; Wheat plant response rating (0 to 100 scale) [16]: 0; Wheat plant response rating [16]: 0; Plant response rating, Barnyardgrass (0 to 100 scale, 0 is no effect, 100 is complete control) [17]: 0; Plant response rating, Ducksalad (0 to 100 scale, 0 is no effect, 100 is complete control) [18]: 0; Plant response rating, Rice (0 to 100 scale, 0 is no effect, 100 is complete control) [19]: 0; Plant response rating, Sedge, Umbrella (0 to 100 scale, 0 is no effect, 100 is complete control) [20]: 0 |
| Cc1ccccc1/C(=N/OC(C)C)c1c(O)c(C)nn(C)c1=O [Compound 19] | 0 | 50 | 50 | 60 | 0 | 40 | 0 | 0 | 0 | 80 | 50 | 80 | 30 | 20 | 60 | 20 | 50 | 10 | 0 | 0 | Foxtail, Green plant response rating (0 to 100 scale) [11]: 50; Foxtail, Green plant response rating [11]: 10; Galium plant response rating (0 to 100 scale) [12]: 90; Galium plant response rating [12]: 80; Kochia plant response rating (0 to 100 scale) [13]: 30; Kochia plant response rating [13]: 10; Pigweed plant response rating (0 to 100 scale) [14]: 80; Pigweed plant response rating [14]: 70; Ragweed plant response rating (0 to 100 scale) [15]: 80; Ragweed plant response rating [15]: 70; Wheat plant response rating (0 to 100 scale) [16]: 0; Wheat plant response rating [16]: 0; Plant response rating, Barnyardgrass (0 to 100 scale, 0 is no effect, 100 is complete control) [17]: 0; Plant response rating, Ducksalad (0 to 100 scale, 0 is no effect, 100 is complete control) [18]: 0; Plant response rating, Rice (0 to 100 scale, 0 is no effect, 100 is complete control) [19]: 0; Plant response rating, Sedge, Umbrella (0 to 100 scale, 0 is no effect, 100 is complete control) [20]: 0 |
